Target: human GPBAR1 receptor (Homo sapiens (Human), UniProt Q8TDU6)
Experiment: functional cAMP assay in CHO-dhfr(minus) cells expressing human GPBAR1 receptors
Format: cell-based
Conditions: CHO-dhfr(minus) cells expressing human GPBAR1, 30 min at 30° C.
In short: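 Functional cAMP responses in a human GPBAR1-transfected CHO-dhfr- clone, picked using lithocholic acid as agonist, gave the EC50 values. Parallel testing in untransfected CHO cells served as a specificity control.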

human GPBAR1 receptor, sequence (Q8TDU6 whole entry): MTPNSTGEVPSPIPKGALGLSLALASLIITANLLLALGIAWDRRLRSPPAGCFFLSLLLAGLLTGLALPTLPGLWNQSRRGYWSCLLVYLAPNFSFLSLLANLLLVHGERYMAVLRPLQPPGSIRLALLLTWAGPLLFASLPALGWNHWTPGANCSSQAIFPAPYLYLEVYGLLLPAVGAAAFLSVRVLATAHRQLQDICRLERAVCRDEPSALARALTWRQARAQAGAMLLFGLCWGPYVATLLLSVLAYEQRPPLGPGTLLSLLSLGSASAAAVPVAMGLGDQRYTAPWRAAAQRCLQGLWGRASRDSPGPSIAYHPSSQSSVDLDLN

| Compound | EC50 [nM] |
| --- | --- |
| COc1cc(F)ccc1-c1ccncc1N(C)C(=O)c1cc(C(F)(F)F)cc(S(=O)(=O)CCCCC(=O)O)c1 [Example 248, 5-(3-{[4-(4-Fluoro-2-methoxy-phenyl)-pyridin-3-yl]-methyl-carbamoyl}-5-trifluoromethyl-benzenesulfonyl)-pentanoic acid] | 323 |
| COc1cc(F)ccc1-c1ccncc1N(C)C(=O)c1cc(C(F)(F)F)cc(S(=O)(=O)N2CCC2)c1 [Example 249, 3-(Azetidine-1-sulfonyl)-N-[4-(4-fluoro-2-methoxy-phenyl)-pyridin-3-yl]-N-methyl-5-trifluoromethyl-benzamide] | 19 |
| COc1cc(F)ccc1-c1ccncc1N(Cc1nccn1C)C(=O)c1cc(C(F)(F)F)cc(S(C)(=O)=O)c1 [Example 250, N-[4-(4-Fluoro-2-methoxy-phenyl)-pyridin-3-yl]-3-methanesulfonyl-N-(1-methyl-1H-imidazol-2-ylmethyl)-5-trifluoromethyl-benzamide] | 2960 |
| COc1cc(F)ccc1-c1ccncc1N(C)C(=O)c1cc(SC2COC2)cc(C(F)(F)F)c1 [Example 251, N-[4-(4-Fluoro-2-methoxy-phenyl)-pyridin-3-yl]-N-methyl-3-(oxetan-3-ylsulfanyl)-5-trifluoromethyl-benzamide] | 30 |
| COc1cc(F)ccc1-c1ccncc1N(C)C(=O)c1cc(OC(F)(F)F)cc(S(C)(=O)=O)c1 [Example 252, N-[4-(4-Fluoro-2-methoxy-phenyl)-pyridin-3-yl]-3-methanesulfonyl-N-methyl-5-trifluoromethoxy-benzamide] | 170 |
| Cc1ccc(F)cc1-c1cc(Cl)ncc1N(C)C(=O)c1cc(C(F)(F)F)cc(S(C)(=O)=O)c1 [Example 253, N-[6-Chloro-4-(5-fluoro-2-methyl-phenyl)-pyridin-3-yl]-3-methanesulfonyl-N-methyl-5-trifluoromethyl-benzamide] | 3040 |
| COc1cc(F)ccc1-c1ccncc1N(C)C(=O)c1cc(C(F)(F)F)cc(S(=O)(=O)CCCCC(N)=O)c1 [Example 254, 3-(4-Carbamoyl-butane-1-sulfonyl)-N-[4-(4-fluoro-2-methoxy-phenyl)-pyridin-3-yl]-N-methyl-5-trifluoromethyl-benzamide] | 54 |
| COc1cc(F)ccc1-c1ccncc1N(C)C(=O)c1cc(C(F)(F)F)cc(S(=O)(=O)C2COC2)c1 [Example 255, N-[4-(4-Fluoro-2-methoxy-phenyl)-pyridin-3-yl]-N-methyl-3-(oxetane-3-sulfonyl)-5-trifluoromethyl-benzamide] | 53 |

Now from value to molecule:

| EC50 [nM] | Compound |
| --- | --- |
| 20 | COc1cc(F)ccc1-c1ccncc1N(C)C(=O)c1cc(C(F)(F)F)cc(S(=O)(=O)N2CCOCC2)c1 [Example 256, N-[4-(4-Fluoro-2-methoxy-phenyl)-pyridin-3-yl]-N-methyl-3-(morpholine-4-sulfonyl)-5-trifluoromethyl-benzamide] |
| 79 | COc1cc(F)ccc1-c1ccncc1N(C)C(=O)c1cc(Cl)cc(S(C)(=O)=O)c1 [Example 257, 3-Chloro-N-[4-(4-fluoro-2-methoxy-phenyl)-pyridin-3-yl]-5-methanesulfonyl-N-methyl-benzamide] |
| 1860 | CN(C(=O)c1cc(C(F)(F)F)cc(S(C)(=O)=O)c1)c1cnccc1-c1ccccc1OCc1ccccc1 [Example 258, N-[4-(2-Benzyloxy-phenyl)-pyridin-3-yl]-3-methanesulfonyl-N-methyl-5-trifluoromethyl-benzamide] |
| 134 | COc1cc(F)ccc1-c1ccncc1N(C)C(=O)c1cc(SCCN2CCC2)cc(C(F)(F)F)c1 [Example 259, 3-(2-Azetidin-1-yl-ethylsulfanyl)-N-[4-(4-fluoro-2-methoxy-phenyl)-pyridin-3-yl]-N-methyl-5-trifluoromethyl-benzamide] |
| 153 | COc1cc(F)ccc1-c1ccncc1N(C)C(=O)c1cc(C2CC2)cc(S(C)(=O)=O)c1 [Example 260, 3-Cyclopropyl-N-[4-(4-fluoro-2-methoxy-phenyl)-pyridin-3-yl]-5-methanesulfonyl-N-methyl-benzamide] |
